Assay results published in PMC5838106, “Cathelicidin promotes inflammation by enabling binding of self-RNA to cell surface scavenger receptors” (Scientific Reports, 2018).
Where no end group is shown, it is not given here.

Assays:
Type in all cases: cell-based, human
[1] = test system: NHEKs; assay: U1 RNA binding to the cell at 4 °C (immunocytofluorescence); conditions: 1 hour, peptide 2.5 μM
From the text: (§1) Figure 2 Structure and cell binding of cathelicidin and dsRNA. (a) Structures of LL37, LL34, and LL34(I20P) bound to dsRNA were solved using SAXS. SAXS data is plotted as the scattering intensity I(q) vs. the momentum transfer vector q. LL34 (blue) and LL34(I20P) (green) condense dsRNA into square lattices with first peak positions of q10 = 0.167 Å^−1 and 0.170 Å^−1, respectively. Higher order Bragg reflections due to scattering of the square lattice of LL34 and LL34(I20P) are labeled for both complexes. In comparison, LL37 (magenta) condenses dsRNA into a columnar lattice with short-ranged order, with a first peak position of q1 = 0.172 Å^−1. (b) Linear fits of Bragg peak positions indicate that LL34-dsRNA (blue) and LL34(I20P)-dsRNA (green) complexes have inter-dsRNA spacings of 3.76 nm and 3.70 nm, respectively. Each reflection corresponding to the peaks in a for LL34 and LL34(I20P) are labeled. Close overlap of the two linear fits indicate that LL34-dsRNA and LL34(I20P)-dsRNA complexes have similar unit cell structures and inter-dsRNA spacings. End-on views along the dsRNA long-axis of the columnar (c) LL37-dsRNA and (d) LL34-dsRNA or LL34(I20P)-dsRNA complexes are shown. In (d), LL34-dsRNA and LL34(I20P)-dsRNA both form square columnar structures with similar unit cell architectures. […]

[2] = test system: THP1 cells; assay: U1 RNA co-association with early endosome (EEA1) in THP1; conditions: PMA-treated THP1, 37 °C, 4 hours
Procedure: NHEKs were grown on 8-well chamber slides (Thermofisher Scientific). After indicated treatments, cells were fixed in 4% paraformaldehyde (PFA) (Thermofisher Scientific) for 10 minutes and blocked with 3% bovine serum albumin, 0.2 M Glycine (Sigma) with or without 1 mg/mL saponin (Sigma) prior to incubating with primary antibodies followed by appropriate 488- or 568-coupled secondary antibodies, or 488-streptavidin conjugate. Nuclei were counterstained with DAPI. All images were taken with an Olympus BX41 microscope (widefield), Zeiss LSM510 confocal microscope, or Nikon A1R Confocal STORM microscope as indicated.
Figure S2. a) PMA-treated THP1 cultured at 37 °C for 4 hours with U1 RNA and cathelicidin peptides. Early endosomal antigen 1 (EEA1) is stained red, U1 RNA is stained green and nuclei were visualized with DAPI (blue). Scale bar represents 10 μm. b) IL-6 mRNA in NHEKs cultured with FPR1 inhibitor Boc-MLF (1 µM) or FPR2 inhibitor WRW4 (1 µM) for 1 hour, treated with LL37 (2.5 µM) and U1 RNA (2.5 µg/mL) for a further 6 hours. (n = 3). c) IL-6 mRNA in NHEKs cultured with G-protein coupled receptor inhibitor pertussis toxin (0.5 µg/mL) for 1 hour, treated with LL37 (2.5 µM) and U1 RNA (2.5 µg/mL) for a further 6 hours. (n = 3). […]

[3] = test system: NHEKs; assay: Immunoblotting of TBK1-AKT-IRF3 pathway and p38 MAPK phosphorylation; conditions: peptide 2.5 μM 10 minutes, then U1 RNA 2.5 μg/mL 30 minutes or 2 hours
From the text: as §1, with “labeled.” for “labeled. Close overlap of the two linear fits indicate that LL34-dsRNA and LL34(I20P)-dsRNA complexes have similar unit cell structures and inter-dsRNA spacings. End-on views along the dsRNA long-axis of the columnar (c) LL37-dsRNA and (d) LL34-dsRNA or LL34(I20P)-dsRNA complexes are shown. In (d), LL34-dsRNA and LL34(I20P)-dsRNA both form square columnar structures with similar unit cell architectures.”
NHEKs were lysed in a denaturing lysis buffer containing 20 mM HEPES pH 7.4, 250 mM NaCl, 2 mM EDTA, and 1% SDS supplemented with completed proteinase inhibitor cocktail as well as 50 mM sodium floride, 5mM N-ethylmaleimide, 100 μM hemin chloride to maximally preserve protein post-translational modifications as described previously. […] Protein concentrations were measured by BCA protein assay kit (Thermofisher). […]

LLGDFFRKSKEKIGKEFKRIVQRIKDFLRNLVPR [LL34]
capacity to enable U1 RNA to bind to the cell [1]: showed the capacity to enable U1 RNA to bind to the cell
co-association of U1 RNA with the early endosome [2]: induced partial co-association with the early endosome
phosphorylation in the TBK1-AKT-IRF3 pathway and p38 MAPK [3]: increased

LL37
capacity to enable U1 RNA to bind to the cell [1]: showed the capacity to enable U1 RNA to bind to the cell
co-association of U1 RNA with the early endosome [2]: induced partial co-association with the early endosome
phosphorylation in the TBK1-AKT-IRF3 pathway and p38 MAPK [3]: increased
